Like-named read-outs stand apart in the source and are kept apart here.
Tests used:
THIK-1 = target: T1, THIK-1 (Homo sapiens, UniProt Q9HB14); test: FLIPR thallium influx assay, HEK-hTHIK-1 cells; assay type: cell-based
T1 construct: expressed in transfected cells
T1 sequence (Q9HB14 1-408): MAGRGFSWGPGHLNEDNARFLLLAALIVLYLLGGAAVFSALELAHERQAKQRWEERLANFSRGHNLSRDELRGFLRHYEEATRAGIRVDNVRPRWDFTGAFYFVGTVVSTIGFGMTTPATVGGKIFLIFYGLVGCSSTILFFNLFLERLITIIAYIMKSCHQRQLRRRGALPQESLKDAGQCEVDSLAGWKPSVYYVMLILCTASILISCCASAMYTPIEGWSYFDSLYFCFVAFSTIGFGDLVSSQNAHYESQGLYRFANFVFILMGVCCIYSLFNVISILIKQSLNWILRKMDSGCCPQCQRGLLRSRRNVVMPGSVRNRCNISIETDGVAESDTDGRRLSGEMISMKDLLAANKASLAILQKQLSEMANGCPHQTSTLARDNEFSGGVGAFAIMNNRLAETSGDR
Description: HEK-293 cells were transfected with human THIK-1, TREK-1, TWIK-2, or mouse THIK-1 cDNA cloned into pcDNA3.1, using either Fugene HD transfection reagent (Promega) or electroporation (MaxCyte STX instrument). Cells stably expressing the relevant genes were selected based on resistance to 500 μg/ml geneticin (Gibco). For human THIK-1 and TWIK-2 expressing cells, monoclonal lines were isolated by limited dilution cloning; mouse THIK-1 and human TREK-1 expressing cells were maintained as polyclonal pools. The HEK-293 pools and monoclones stably expressing the relevant genes were maintained in DMEM (Life Technologies), supplemented with 10% FCIII (HyClone, Fetal clone III) and 500 μg/ml geneticin. A CHO-Kv2.1 cell line was purchased from Millipore (accession NM_004975) and maintained in F12 (Life Technologies), supplemented with 10% FCSIII (Thermo Scientific) and 500 μg/ml geneticin (Life Technologies). For thallium flux assays, banks of frozen cell aliquots were prepared the day prior to assay, cells were thawed into media and seeded into PDL coated 384-well plates (Corning) at 25,000 (human/mouse THIK-1, TREK-1) or 30,000 (TWIK-2) cells/well (25 μl/well). CHO-Kv2.1 cells were seeded into non-PDL coated plates (Corning) at 5000 cells/well. Plated cells were incubated overnight at 37 °C, 5% CO2 in a humidified atmosphere. For Q-Patch assays, cells were cultured for 7 days prior to assay, dissociated, and diluted to 1–2.5 million/ml in EX-CELL ACF serum free media containing HEPES (25 mM; Life Technologies), penicillin/streptomycin (100 U/ml, 100 μg/ml; Life Technologies) and a trypsin inhibitor (0.04 mg/ml).
A fluorescence-based thallium influx assay (Molecular Devices potassium assay kit) was used to monitor channel activity. In brief, component A was reconstituted in 17 ml of chloride-free assay buffer (130 mM sodium D-gluconate, 5 mM potassium D-gluconate, 2 mM calcium D-gluconate, 1 mM magnesium D-gluconate, 5 mM NaHCO3, 20 mM HEPES; pH adjusted to 7.4 with NaOH and filtered (0.45 μm filter)) and component C reconstituted in 30 μl of DMSO. Components A and C were combined, and probenecid was added (Life Technologies; final assay concentration (FAC) 4.75 mM for HEK cell lines and 2.47 mM for CHO-Kv2.1) to provide the final dye solution. Media was removed from the cell plates and replaced with dye (20 μl/well) and the plates were incubated at room temperature in the dark for 60 min. On the day of the assay, a diluted compound plate (3x FAC in 1.5% DMSO) was created. Control wells contained either DMSO vehicle (1.5%, 3x FAC) or tetrapentylammonium chloride (TPA; Sigma, 258962; 1.5 mM in 1.5% DMSO, 3x FAC). A 3x thallium stimulation plate was also prepared, to provide a FAC of either 1 mM (human THIK-1) or 3 mM (mouse THIK-1, TREK-1, TWIK-2) thallium sulphate (in assay buffer). For Kv2.1, the FAC of thallium sulphate was 2.6 mM and this was prepared in assay buffer containing potassium sulphate (Sigma P9458; FAC 23.3 mM). Following 60 min of dye loading, 10 μl from the 3x FAC compound plate was added into the cell plate, which was then incubated for 15 min at room temperature in the dark. Using a fluorescent imaging plate reader (FLIPR) tetra plate reader, 15 μl thallium stimulus solution was added to the cell plate and the fluorescence signal recorded every second for 1 min (excitation: 470–495 nm, emission: 515–575 nm).

Kv2.1 = target: T2, Kv2.1 (Homo sapiens, UniProt Q14721); test: FLIPR thallium influx assay, potassium sulphate stimulated CHO-Kv2.1 cells; assay type: cell-based; settings: potassium sulphate stimulated CHO-Kv2.1, at 30 μM; read-out: inhibition of thallium flux
T2 construct: host or cells: CHO
T2 sequence (Q14721 whole entry): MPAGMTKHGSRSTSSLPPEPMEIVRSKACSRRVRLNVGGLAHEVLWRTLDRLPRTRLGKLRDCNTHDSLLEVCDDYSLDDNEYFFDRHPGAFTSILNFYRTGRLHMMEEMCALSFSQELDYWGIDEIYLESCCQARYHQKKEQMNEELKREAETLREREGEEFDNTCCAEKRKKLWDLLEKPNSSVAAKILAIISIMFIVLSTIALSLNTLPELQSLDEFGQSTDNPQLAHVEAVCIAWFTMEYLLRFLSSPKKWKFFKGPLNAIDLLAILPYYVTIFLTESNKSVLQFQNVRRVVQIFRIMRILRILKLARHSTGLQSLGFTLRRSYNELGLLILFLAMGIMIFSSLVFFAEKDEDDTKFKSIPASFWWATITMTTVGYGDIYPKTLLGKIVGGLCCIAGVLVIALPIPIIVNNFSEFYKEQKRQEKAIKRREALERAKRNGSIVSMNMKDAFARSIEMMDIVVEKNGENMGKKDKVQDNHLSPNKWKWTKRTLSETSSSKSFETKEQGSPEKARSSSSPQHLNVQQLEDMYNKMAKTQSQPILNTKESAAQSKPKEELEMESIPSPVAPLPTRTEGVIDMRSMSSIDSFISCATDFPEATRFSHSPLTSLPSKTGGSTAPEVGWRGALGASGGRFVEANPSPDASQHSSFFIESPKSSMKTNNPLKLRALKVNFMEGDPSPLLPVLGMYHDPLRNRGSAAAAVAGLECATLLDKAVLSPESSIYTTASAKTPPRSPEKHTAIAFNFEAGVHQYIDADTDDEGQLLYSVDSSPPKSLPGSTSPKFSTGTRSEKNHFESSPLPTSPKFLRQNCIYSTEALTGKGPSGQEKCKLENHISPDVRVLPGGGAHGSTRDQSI
Description: HEK-293 cells were transfected with human THIK-1, TREK-1, TWIK-2, or mouse THIK-1 cDNA cloned into pcDNA3.1, using either Fugene HD transfection reagent (Promega) or electroporation (MaxCyte STX instrument). Cells stably expressing the relevant genes were selected based on resistance to 500 μg/ml geneticin (Gibco). For human THIK-1 and TWIK-2 expressing cells, monoclonal lines were isolated by limited dilution cloning; mouse THIK-1 and human TREK-1 expressing cells were maintained as polyclonal pools. The HEK-293 pools and monoclones stably expressing the relevant genes were maintained in DMEM (Life Technologies), supplemented with 10% FCIII (HyClone, Fetal clone III) and 500 μg/ml geneticin. A CHO-Kv2.1 cell line was purchased from Millipore (accession NM_004975) and maintained in F12 (Life Technologies), supplemented with 10% FCSIII (Thermo Scientific) and 500 μg/ml geneticin (Life Technologies). […]
A fluorescence-based thallium influx assay (Molecular Devices potassium assay kit) was used to monitor channel activity. […] Using a fluorescent imaging plate reader (FLIPR) tetra plate reader, 15 μl thallium stimulus solution was added to the cell plate and the fluorescence signal recorded every second for 1 min (excitation: 470–495 nm, emission: 515–575 nm).

CNS PK study in rats = assay type: in vivo; settings: Sprague Dawley, rat, brain (unbound) / plasma (unbound), 10 or 30 mg/kg oral, 1, 2 or 4 h post dose, read-out: Kpu,u
Description: In CNS PK studies, rodents (C57BL/6 mice or Sprague Dawley rats) were administered C101248 by oral gavage at 10 or 30 mg/kg. At specified timepoints post dose (0.5, 1, 2 or 4 h), blood samples were collected and processed to plasma (centrifugation at 5000 rpm, 4 °C for 10 min). Immediately following blood withdrawal, cerebrospinal fluid (CSF) samples were collected from the cisterna magna, whole body perfusion was conducted, and brain samples were collected and weighed. Samples were stored frozen at −80 ± 10 °C until analysis. Plasma, CSF, and brain samples were analysed using a fit for purpose bioanalytical method (LC-MS/MS) against a calibration curve containing QC samples. Brain:plasma and CSF:plasma were calculated based on brain concentration/plasma concentration at the same timepoint. Unbound partition coefficient (Kpu,u) values were calculated based on unbound brain concentration/unbound plasma concentration at the same timepoint. Unbound concentrations were derived by adjusting plasma concentrations for the fraction unbound in plasma based on in vitro plasma protein binging (PPB) values and brain concentrations for the unbound fraction in brain tissue based on in vitro brain tissue binding (BTB) values.

Nc1nonc1-c1nc2ccccc2n1Cc1ccncc1 [C101248]
IC50 (THIK-1; HEK-hTHIK-1, normalised to TPA controls, read-out: IC50, inhibition of THIK-1 constitutive activity (thallium influx)): 0.046 µM | maximum inhibition (THIK-1; HEK-hTHIK-1, thallium influx, normalised to TPA controls): 102% | IC50 (THIK-1; human THIK-1, read-out: IC50, inhibition of human THIK-1 (abstract)): ~0.05 µM | potency relative to tetrapenthylammonium chloride (TPA) (THIK-1; human and mouse THIK-1 constitutive activity, thallium influx and Q-patch): 100 times | inhibition at 30 µM (Kv2.1): -3% | Kp (CNS PK study in rats): 0.55 to 0.95
